# Assay results reported in patent US20260250290A1 (BRISTOL-MYERS SQUIBB COMPANY, priority 2023, published 2026).
# Counter-ions that a name gives are not always drawn.
# Target: T1, SGK1 (Homo sapiens, UniProt O00141)
# T1 sequence (O00141 1-431): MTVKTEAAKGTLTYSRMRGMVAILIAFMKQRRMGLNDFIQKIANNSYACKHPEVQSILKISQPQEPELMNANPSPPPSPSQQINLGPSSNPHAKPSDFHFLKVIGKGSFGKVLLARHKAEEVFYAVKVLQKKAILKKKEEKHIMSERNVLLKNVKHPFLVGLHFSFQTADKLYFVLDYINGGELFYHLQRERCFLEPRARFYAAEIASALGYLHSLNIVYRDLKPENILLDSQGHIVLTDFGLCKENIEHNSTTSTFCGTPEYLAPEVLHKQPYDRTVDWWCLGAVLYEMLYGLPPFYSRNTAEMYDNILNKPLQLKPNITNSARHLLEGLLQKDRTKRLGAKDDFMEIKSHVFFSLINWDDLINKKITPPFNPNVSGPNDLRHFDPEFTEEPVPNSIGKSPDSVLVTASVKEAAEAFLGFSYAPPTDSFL
# Experiment: SGK1 inhibition Assay B (Echo mass spectrometry of phosphorylated peptide product)
# Type: biochemical
# Settings: 60 min at room temperature
# Protocol: 20 μl of 2 nM SGK1 were added in 20 mM Hepes+10 mM MgCl2+0015% Brij-35+4 mM DTT+0.05 mg/ml BSA and the reaction incubated for 60 min at room temperature. The enzymatic reaction was quenched by addition 10 μl of 1% Formic Acid+150 nM Internal Standard: FITC-(Ahx)KKRNRR(pS)VA^—OH (final concentration). The plates are spun down at 3700 RPM for 10 minutes to remove all precipitate. Samples were loaded on to the Sciex Echo Mass Spec attached to a Sciex 6500 equipped with ESI and was used to analyze the phosphorylated peptide product. MRM transition of product and internal standard were monitored at m/z 755 to 937.5 and m/z 757.7 to 941.3 respectively. Peak area of analyte was normalized with internal standard.
# Dose response curves were generated to determine the concentration required for inhibiting 50% of the enzyme activity. Compounds were dissolved at 10 mM in dimethylsulfoxide (DMSO) and evaluated at eleven concentrations.
row,IC50 [nM],Compound
1,2,"Cc1nc(O[C@@H]2CC[C@H]3[C@H](CCN3C)C2)c(C(=O)N[C@@H]2CCCN(c3cc(-c4ccc(C(N)=O)c(F)c4)n4ncnc(N)c34)C2)s1 [Example 918, 4-{[(3aR,5R,7aS)-1-methyl-octahydro-1H-indol-5-yl]oxy}-N-[(3R)-1-[4-amino-7-(4-carbamoyl-3-fluorophenyl)pyrrolo[2,1-f][1,2,4]triazin-5-yl]piperidin-3-yl]-2-methyl-1,3-thiazole-5-carboxamide]"
2,5,"Cc1nc(OCCCN(C)C)c(C(=O)N[C@@H]2CCCN(c3cc(-c4cnc(-n5cnnn5)c(F)c4)n4ncnc(N)c34)C2)s1 [Example 919, N-[(3R)-1-{4-amino-7-[5-fluoro-6-(1H-1,2,3,4-tetrazol-1-yl)pyridin-3-yl]pyrrolo[2,1-f][1,2,4]triazin-5-yl}piperidin-3-yl]-4-[3-(dimethylamino)propoxy]-2-methyl-1,3-thiazole-5-carboxamide]"
3,2,"CC(=O)N1CC=C(c2cc(N3CCC[C@@H](NC(=O)c4sc(C#N)cc4O[C@@H]4C[C@H]5CC[C@@H](C4)N5C)C3)c3c(N)ncnn23)C1 [Example 920, N—((R)-1-(7-(1-acetyl-2,5-dihydro-1H-pyrrol-3-yl)-4-aminopyrrolo[2,1-f][1,2,4]triazin-5-yl)piperidin-3-yl)-5-cyano-3-(((1R,3s,5S)-8-methyl-8-azabicyclo[3.2.1]octan-3-yl)oxy)thiophene-2-carboxamide]"
4,7,"CC(=O)N1CC=C(c2cc(N3CCC[C@@H](NC(=O)c4sc(Cl)cc4OCC(C)(C)O)C3)c3c(N)ncnn23)C1 [Example 921, (R)—N-(1-(7-(1-acetyl-2,5-dihydro-1H-pyrrol-3-yl)-4-aminopyrrolo[2,1-f][1,2,4]triazin-5-yl)piperidin-3-yl)-5-chloro-3-(2-hydroxy-2-methylpropoxythiophene-2-carboxamide TFA salt]"
5,1,"CC(=O)N1CC=C(c2cc(N3CCC[C@@H](NC(=O)c4cc5[nH]ccc5s4)C3)c3c(N)ncnn23)C1 [Example 923, (R)—N-(1-(7-(1-acetyl-2,5-dihydro-1H-pyrrol-3-yl)-4-aminopyrrolo[2,1-f][1,2,4]triazin-5-yl)piperidin-3-yl)-4H-thieno[3,2-b]pyrrole-2-carboxamide]"
6,0.9,"CN1[C@@H]2CC[C@H]1C[C@H](Oc1cc(Cl)sc1C(=O)N[C@@H]1CCCN(c3cc(-c4ccc5c(c4)COC5=O)n4ncnc(N)c34)C1)C2 [Example 924, N—((R)-1-(4-amino-7-(1-oxo-1,3-dihydroisobenzofuran-5-yl)pyrrolo[2,1-f][1,2,4]triazin-5-yl)piperidin-3-yl)-5-chloro-3-(((1R,3s,5S)-8-methyl-8-azabicyclo[3.2.1]octan-3-yl)oxy)thiophene-2-carboxamide]"
7,0.4,"CN1[C@@H]2CC[C@H]1C[C@H](Oc1cc(Cl)sc1C(=O)N[C@@H]1C[C@@H](F)CN(c3cc(-c4ccc(-n5cnnn5)c(F)c4)n4ncnc(N)c34)C1)C2 [Example 925, N-((3R,5R)-1-(4-amino-7-(3-fluoro-4-(1H-tetrazol-1-yl)phenyl)pyrrolo[2,1-f][1,2,4]triazin-5-yl)-5-fluoropiperidin-3-yl)-5-chloro-3-(((1R,3s,5S)-8-methyl-8-azabicyclo[3.2.1]octan-3-yl)oxy)thiophene-2-carboxamide, TFA salt]"
8,0.8,"CN1[C@@H]2CC[C@H]1C[C@H](Oc1cc(Cl)sc1C(=O)N[C@@H]1CCCN(c3cc(C4=CCOC4)n4ncnc(N)c34)C1)C2 [Example 926, N—((R)-1-(4-amino-7-(2,5-dihydrofuran-3-yl)pyrrolo[2,1-f][1,2,4]triazin-5-yl)piperidin-3-yl)-5-chloro-3-(((1R,3s,5S)-8-methyl-8-azabicyclo[3.2.1]octan-3-yl)oxy)thiophene-2-carboxamide, TFA salt]"
9,0.1,"CN1[C@@H]2CC[C@H]1C[C@H](Oc1cc(Cl)sc1C(=O)N[C@@H]1CCCN(c3cc(C4=CC(=O)OC4)n4ncnc(N)c34)C1)C2 [Example 927, N—((R)-1-(4-amino-7-(5-oxo-2,5-dihydrofuran-3-yl)pyrrolo[2,1-f][1,2,4]triazin-5-yl)piperidin-3-yl)-5-chloro-3-(((1R,3s,5S)-8-methyl-8-azabicyclo[3.2.1]octan-3-yl)oxy)thiophene-2-carboxamide, TFA salt]"
10,0.1,"Cc1nc(O[C@@H]2C[C@H]3CC[C@@H](C2)N3C)c(C(=O)N[C@@H]2CCCN(c3cc(-c4csc(C(C)O)c4)n4ncnc(N)c34)C2)s1 (stereo partly drawn) [Example 928, N-((3R)-1-(4-amino-7-(5-(1-hydroxyethyl)thiophen-3-yl)pyrrolo[2,1-f][1,2,4]triazin-5-yl)piperidin-3-yl)-2-methyl-4-(((1R,3s,5S)-8-methyl-8-azabicyclo[3.2.1]octan-3-yl)oxy)thiazole-5-carboxamide, TFA salt]"
11,1,"Cc1nc(O[C@@H]2C[C@H]3CC[C@@H](C2)N3C2CC(O)C2)c(C(=O)N[C@@H]2CCCN(c3cc(-c4ccc(-n5cnnn5)c(F)c4)n4ncnc(N)c34)C2)s1 (stereo partly drawn) [Example 929, N—((R)-1-(4-amino-7-(3-fluoro-4-(1H-tetrazol-1-yl)phenyl)pyrrolo[2,1-f][11,2,4]triazin-5-yl)piperidin-3-yl)-4-(((1R,3s,5S)-8-(3-hydroxycyclobutyl)-8-azabicyclo[3.2.1]octan-3-yl)oxy)-2-methylthiazole-5-carboxamide TFA salt]"
12,1,"Cc1nc(O[C@H]2CC[C@]3(CCCN3)CC2)c(C(=O)N[C@@H]2CCCN(c3cc(-c4ccc(C(N)=O)c(F)c4)n4ncnc(N)c34)C2)s1 [Example 930, 4-(((5S,8r)-1-azaspiro[4.5]decan-8-yl)oxy)-N—((R)-1-(4-amino-7-(4-carbamoyl-3-fluorophenyl)pyrrolo[2,1-f][1,2,4]triazin-5-yl)piperidin-3-yl)-2-methylthiazole-5-carboxamide, TFA salt]"
13,0.5,"Cc1nc(O[C@H]2CC[C@]3(CCCN3C)CC2)c(C(=O)N[C@@H]2CCCN(c3cc(-c4ccc(C(N)=O)c(F)c4)n4ncnc(N)c34)C2)s1 [Example 931, N—((R)-1-(4-amino-7-(4-carbamoyl-3-fluorophenyl)pyrrolo[2,1-f][1,2,4]triazin-5-yl)piperidin-3-yl)-2-methyl-4-(((5S,8r)-1-methyl-1-azaspiro[4.5]decan-8-yl)oxy)thiazole-5-carboxamide, TFA salt]"
14,3,"CNC(=O)c1ccc(-c2cc(N3CCC[C@@H](NC(=O)c4sc(C)nc4O[C@H]4CC[C@@H](N(C)C)CC4)C3)c3c(N)ncnn23)cc1F [Example 932, N—((R)-1-(4-amino-7-(3-fluoro-4-(methylcarbamoyl)phenyl)pyrrolo[2,1-f][1,2,4]triazin-5-yl)piperidin-3-yl)-4-(((1s,4S)-4-(dimethylamino)cyclohexyl)oxy)-2-methylthiazole-5-carboxamide]"
15,0.8,"Cc1cc(O[C@@H]2C[C@H]3CC[C@@H](C2)N3C)c(C(=O)N[C@@H]2CCCN(c3cc(-c4ccc(-n5cc(CCC#N)nn5)c(F)c4)n4ncnc(N)c34)C2)s1 [Example 933, N—((R)-1-(4-Amino-7-(4-(4-(2-cyanoethyl)-1H-1,2,3-triazol-1-yl)-3-fluorophenyl)pyrrolo[2,1-f][1,2,4]triazin-5-yl)piperidin-3-yl)-5-methyl-3-(((1R,3s,5S)-8-methyl-8-azabicyclo[3.2.1]octan-3-yl)oxy)thiophene-2-carboxamide]"
16,0.5,"Cc1nc(O[C@H]2CC[C@@](C)(N)CC2)c(C(=O)N[C@@H]2CCCN(c3cc(-c4ccc(-n5cnnn5)c(F)c4)n4ncnc(N)c34)C2)s1 [Example 934, 4-(((1s,4S)-4-Amino-4-methylcyclohexyl)oxy)-N—((R)-1-(4-amino-7-(3-fluoro-4-(1H-tetrazol-1-yl)phenyl)pyrrolo[2,1-f][1,2,4]triazin-5-yl)piperidin-3-yl)-2-methylthiazole-5-carboxamide]"
17,1,"Cc1nc(O[C@H]2CC[C@@H](N(C)C)CC2)c(C(=O)N[C@@H]2CCCN(c3cc(-c4ccc(C(N)=O)c(F)c4)n4ncnc(N)c34)C2)s1 [Example 937, N—((R)-1-(4-Amino-7-(4-carbamoyl-3-fluorophenyl)pyrrolo[2,1-f][1,2,4]triazin-5-yl)piperidin-3-yl)-4-(((1s,4S)-4-(dimethylamino)cyclohexyl)oxy)-2-methylthiazole-5-carboxamide]"
18,3,"Cc1nc(O[C@H]2CC[C@@H](NC(C)C)C2)c(C(=O)N[C@@H]2CCCN(c3cc(-c4ccc(C(N)=O)c(F)c4)n4ncnc(N)c34)C2)s1 [Example 940, N—((R)-1-(4-Amino-7-(4-carbamoyl-3-fluorophenyl)pyrrolo[2,1-f][1,2,4]triazin-5-yl)piperidin-3-yl)-4-(((1S,3R)-3-(isopropylamino)cyclopentyl)oxy)-2-methylthiazole-5-carboxamide]"
19,4,"Cc1nc(OC2CCCC(NC(C)C)CCC2)c(C(=O)N[C@@H]2CCCN(c3cc(-c4ccc(C(N)=O)c(F)c4)n4ncnc(N)c34)C2)s1 (stereo partly drawn) [Example 942, (R)—N-(1-(4-Amino-7-(4-carbamoyl-3-fluorophenyl)pyrrolo[2,1-f][1,2,4]triazin-5-yl)piperidin-3-yl)-4-((5-(isopropylamino)cyclooctyl)oxy)-2-methylthiazole-5-carboxamide]"
20,1,"CN(C)C1CC2(CC(Oc3cc(Cl)sc3C(=O)N[C@@H]3CCCN(c4cc(-c5ccc(C(N)=O)c(F)c5)n5ncnc(N)c45)C3)C2)C1 (stereo partly drawn) [Example 944, (R)—N-(1-(4-Amino-7-(4-carbamoyl-3-fluorophenyl)pyrrolo[2,1-f][1,2,4]triazin-5-yl)piperidin-3-yl)-5-chloro-3-((6-(dimethylamino)spiro[3.3]heptan-2-yl)oxy)thiophene-2-carboxamide]"
